Legend:
Assay type in all cases: cell-based
cultured cells = assay: Optimal concentration of PARP inhibitor in the culture medium; details: i.e. about 2 mM; incubation not longer than 14 days
Method: The concentration of the PARP inhibitor in the medium is also believed to have an effect on the inhibition of PARP, which varies depending on the nature of the cells (species, tissue explant, general culture conditions, etc.) However, within certain concentration ranges, the effect is minimal, especially when the cultured cells are not incubated for longer than 14 days. The optimal concentration range of PARP inhibitor in the medium may vary depending on the species from which the tissue, cell or cell culture is derived, but 250 mg/l (about 2 mM) is believed to be a suitable concentration for many purposes (e.g. for use with material derived from wheat). However, when nicotinamide is used in combination with plant material derived from rice, the concentration of nicotinamide should preferably be between 500 mg/l (about 4 mM) and 1000 mg/l (approx. 8 mM). On the other hand, when nicotinamide is used in combination with plant material derived from corn, the concentration of nicotinamide should preferably be 100 mg/l. […] The optimal concentration will depend on the nature of the specific PARP inhibitor used, particularly on its strength of inhibition (as measured by its Ki and/or by its percentage inhibition of PARP under standard conditions—Sims et al, supra). […]

[1] = tested on: Hypocotyl explants of Brassica napus; assay: Agrobacterium mediated transformation of oilseed rape hypocotyl explants with pTHW107, niacinamide for 4 days prior to infection
Method: Hypocotyl explants of Brassica napus were obtained, cultured and transformed essentially as described by De Block et al, 1989, Plant Physiol. 914:694-701 except for the following modifications: • hypocotyl explants were precultured for 3 days on A2 medium (MS, 0.5 g/l Mes (pH 5.7), 1.2% glucose, 0.5% agarose, 1 mg/l 2,4-D, 0.25 mg/l naphthalene acetic acid (NAA), 1 mg/l 6-benzylaminopurine (BAP)), and then transferred to the A2 medium with or without niacinamide for another 4 days. • infection medium A3 was MS, 0.5 g/l Mes (pH 5.7), 1.2% glucose, 0.1 mg/l NAA, 0.75 mg/l BAP, 0.01 mg/l giberellinic acid (GA3) • selection medium A5 was 0.5 g/l Mes (pH 5.7), 1.2% glucose, 40 mg/l adenine.SO4, 0.5 g/l polyvinyl-polypyrrolidone (PVP), 0.5% agarose, 0.1 mg/l NAA, 0.75 mg/l BAP, 0.01 mg/l GA3, 250 mg/l carbenicillin, 250 mg/l triacillin, 5 mg/l AgNO3. • regeneration medium A6 was MS, 0.5 g/l Mes (pH 5.7), 2% sucrose, 40 mg/l adenine.SO4, 0.5 g/l PVP, 0.5% agarose, 0.0025 mg/l BAP, 250 mg/l triacillin. • healthy shoots were transferred to 1 liter vessels containing rooting medium which was either A8 or A9; A8 consists of 100-130 ml half concentrated MS, 1% sucrose (pH 5.0), 1 mg/l isobutyric acid (IBA), 100 mg/l triacillin added to 300 ml perlite (final pH 6.2); A9 consists of half concentrated MS, 1.5% sucrose (pH 5.8) solidified with agar (0.6%)
Hypocotyl explants (with or without niacinamide treatment) were infected with Agrobacterium tumefaciens strain C58C1Rif carrying T-DNA vector pTHW107 and a helper Ti-plasmid pMP90 (Koncz and Schell, 1986, Mol.Gen.Genet. 204:383-396)(or a derivative thereof).
Plasmid pTHW107 is a vector carrying a T-DNA comprising the following chimeric genes: • PTA29-barnase-3′g7 • PSSU-bar-3′nos • in which PTA29 is the promoter of the TA29 gene of tobacco (EP 344029) and PSSU is the promoter of the gene of Arabidopsis thaliana encoding the small subunit of Rubisco. The complete sequence of the T-DNA of pTHW107 is presented in SEQ ID No 1.
Where required niacinamide (250 mg/l) was added to the media for the last 4 days prior to infection with Agrobacterium. […] Five plants regenerated from the calli obtained by transformation including niacinamide and five plants regenerated from the calli obtained by conventional transformation without niacinamide inclusion, were analyzed by Southern hybridization to determine the copy number of the transgenes, and were further analyzed for reproductive phenotype.

[2] = tested on: Hypocotyl explants of Brassica napus; assay: Agrobacterium-mediated transformation of oilseed rape hypocotyl explants with pTHW142 using niacinamide before, during or after infection
Method: Hypocotyl explants of Brassica napus were obtained as described in Example 3. Four groups of 200 hypocotyl explants each, were either not treated with niacinamide (indicated in table 4 as NONE), treated with 250 mg/l niacinamide for 1 day prior to infection with Agrobacterium (BEFORE), treated for 2 days during the infection with 250 mg/l niacinamide (DURING), or treated for 1 day after the Agrobacterium infection with 250 mg/l niacinamide (AFTER).
All hypocotyl explants were infected with Agrobacterium tumefaciens strain C58C1Rif carrying T-DNA vector pTHW142 and a helper Ti-plasmid pMP90 (Koncz and Shell, 1986 supra)(or a derivative thereof). Plasmid pTHW142 is a vector carrying a T-DNA comprising the following chimeric genes: • PSSU-bar-3′g7 • p35S-uidA-3′35S • In which uidA is a DNA encoding b-glucuronidase (Jefferson et al., 1986, Proc. Natl. Acad. Sci. USA 83, 8447-8451) and 3′ 35S is the 3′ untranslated end of the cauliflower mosaic virus 35S transcript. The complete sequence of the T-DNA of pTHW142 is presented in SEQ ID No 5.
After the Agrobacterium infection, hypocotyl explants were transferred to selection medium A5, and if appropriate to A5 medium containing 250 mg/ll niacinamide. The hypocotyl explants that were placed on medium containing niacinamide were transferred after 1 day to niacinamide-free selection medium A5. After 5 weeks on selective medium the number of transformed calli was scored. b-glucuronidase expression was verified in the obtained calli using established protocols (Jefferson et al., 1986).

[3] = 250 mg/l niacinamide for the last 4 days prior to infection
[4] = Before 250, regenerated plants Id. No. 1-5

SMILES: NC(=O)c1cccnc1 [niacinamide]
- optimal concentration in the culture medium (cultured cells): approximately 250 mg/l
- copy number in plants regenerated from transformed calli [1, 3]: low copy number
- variation in the expression profile of the transgenes [1, 3]: less variation
- Phenotype of the F1-progeny (vegetative/reproductive) ([1]; Before 250, pollinated with untransformed N90-740, phosphinotricin resistant F1-progeny): normal/sterile
- Reproductive phenotype (male sterility) [1, 4]: sterile
- Vegetative phenotype [1, 4]: normal
- Transformation frequency (transformed calli, PPT-resistant and GUS-positive, per 100 hypocotyl explants) ([2]; AFTER: 250 mg/l niacinamide for 1 day after the infection, scored after 5 weeks): 29%
- Transformation frequency (transformed calli, PPT-resistant and GUS-positive, per 100 hypocotyl explants) ([2]; BEFORE: 250 mg/l niacinamide for 1 day prior to infection, scored after 5 weeks on selective medium): 32%
- Remarks (callus size and appearance) ([2]; BEFORE, large: callus diameter of approximately 5 mm): large, green calli
- Transformation frequency (transformed calli, PPT-resistant and GUS-positive, per 100 hypocotyl explants) ([2]; DURING: 250 mg/l niacinamide for 2 days during the infection, scored after 5 weeks): 16%
- Remarks (callus size and appearance) ([2]; DURING, very small: callus diameter of approximately 1-2 mm): very small, light green calli
- transformation efficiency ([2]; niacinamide treatment either before or after the Agrobacterium infection): significantly increase

Reference: patent US20050014268A1, “Genetic transformation using a PARP inhibitor” (Bayer BioScience NV, priority 1995, published 2005)
